Consider 16 molecules from ChEMBL document CHEMBL5346937, “Repurposing 1,2,4-oxadiazoles as SARS-CoV-2 PLpro inhibitors and investigation of their possible viral entry blockade potential” (Eur J Med Chem, 2023).

Data set [1] concerns A549. Description: Cytotoxicity against human […] A549 cells assessed as reduction in cell viability incubated for 72 hrs by MTT assay. The note with it: for CC50: Homo sapiens, A549. It counts as functional.
Data set [2] concerns WI-38. Description: (§1) Cytotoxicity against human WI-38 cells assessed as reduction in cell viability incubated for 72 hrs by MTT assay. The format is toxicity, cell-based. Conditions: wi-38, 72 h.
Data set [3] deals with Replicase polyprotein 1ab (Severe acute respiratory syndrome coronavirus 2) (UniProt P0DTD1). Briefly: Inhibition of SARS-CoV-2 PLpro at 10 uM using Arg-Leu-Arg-Gly-Gly-AMC as substrate preincubated for 5 mins followed by substrate addition measured after 6 mins by fluorescence based assay relative to control. The note with it: time 11.0 min.
Data set [4] deals with Spike glycoprotein/Angiotensin-converting enzyme 2 (Severe acute respiratory syndrome coronavirus 2) (UniProt Q9BYF1+P0DTC2). Briefly: Inhibition of SARS-CoV-2 spike protein RBD- human ACE2 interaction at 10 uM pretreated with SARS-CoV-2 spike RBD for 2 hrs followed by ACE2 addition and measured after 2 hrs by […] based ELISA analysis relative to control. The note with it: time 4.0 hrs. The format is protein assay. For orientation: In an ELISA, binding on a coated surface is turned into a signal by an enzyme label.

A short description of data set [5]: as §1. It counts as toxicity, cell-based. The note with it: WI-38 cells.
For data set [6], the system named is SARS-CoV-2. Briefly: Antiviral activity against SARS-CoV-2 assessed as inhibition of viral growth. It counts as functional, organism-based. The note with it: Severe acute respiratory syndrome coronavirus 2.
The target of data set [7] is Replicase polyprotein 1ab (Severe acute respiratory syndrome coronavirus 2, UniProt P0DTD1). Description: Inhibition of SARS-CoV-2 PLpro using Arg-Leu-Arg-Gly-Gly-AMC as substrate preincubated for 5 mins followed by substrate addition measured after 6 mins by fluorescence based assay.
Data set [8] can be described thus: Octanol/water partition coefficient, logP of the compound by HPLC analysis. The format is physicochemical.
The target in data set [9] is Spike glycoprotein/Angiotensin-converting enzyme 2 (Severe acute respiratory syndrome coronavirus 2, UniProt P0DTC2+Q9BYF1). Description: Inhibition of SARS-CoV-2 spike protein RBD- human ACE2 interaction pretreated with SARS-CoV-2 spike RBD for 2 hrs followed by ACE2 addition and measured after 2 hrs by […] based ELISA analysis. The format is protein assay.
Sequence of Spike glycoprotein/Angiotensin-converting enzyme 2 (Q9BYF1 18-805 limits assumed, other chains not shown): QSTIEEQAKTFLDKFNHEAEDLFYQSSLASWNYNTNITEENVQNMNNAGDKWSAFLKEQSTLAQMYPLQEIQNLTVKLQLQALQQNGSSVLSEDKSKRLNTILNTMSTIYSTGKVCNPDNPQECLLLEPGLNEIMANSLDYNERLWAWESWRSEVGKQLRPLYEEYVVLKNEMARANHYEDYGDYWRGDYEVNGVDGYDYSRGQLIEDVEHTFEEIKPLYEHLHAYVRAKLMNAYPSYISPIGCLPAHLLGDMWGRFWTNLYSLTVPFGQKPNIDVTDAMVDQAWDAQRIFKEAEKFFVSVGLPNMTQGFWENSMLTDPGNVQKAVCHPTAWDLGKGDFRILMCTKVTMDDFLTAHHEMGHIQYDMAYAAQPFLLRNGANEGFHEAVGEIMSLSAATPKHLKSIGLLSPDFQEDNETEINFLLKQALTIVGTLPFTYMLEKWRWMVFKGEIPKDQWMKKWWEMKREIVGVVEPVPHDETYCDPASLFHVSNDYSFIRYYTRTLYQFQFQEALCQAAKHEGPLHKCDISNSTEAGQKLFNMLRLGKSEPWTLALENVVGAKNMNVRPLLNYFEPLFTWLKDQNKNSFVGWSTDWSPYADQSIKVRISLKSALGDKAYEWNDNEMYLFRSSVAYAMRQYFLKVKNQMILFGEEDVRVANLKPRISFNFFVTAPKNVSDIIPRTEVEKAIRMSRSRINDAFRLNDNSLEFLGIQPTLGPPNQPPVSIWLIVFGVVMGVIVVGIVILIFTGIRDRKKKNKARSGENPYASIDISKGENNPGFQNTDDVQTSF

What is called CC50 is the concentration giving 50% cytotoxicity. In general, inhibition refers to the relative decrease from the control value, in per cent. With `CCOC(=O)CN1C(=O)COc2ccccc2-c2nc(no2)-c2ccccc21`, the EC100 was determined as 7.127 µM in data set [1] and 6.313 µM in [2]. The results for the CC50 in data set [1] and in data set [2] were 14.2 µM and 31.6 µM, respectively. Also, the inhibition in [3] worked out at 18.1%; in data set [4], 15.6%.
As to `Nc1ccccc1-c1nc(-c2ccccc2)no1`, the figures for the EC100 in [1] and in data set [2] were 11.681 µM and 19.059 µM, respectively. In addition, the values for the CC50 in data set [1] and in data set [2] were 24.7 µM and 57.2 µM, respectively. Further, the inhibition in data set [3] amounted to 21.1%; in data set [4], 31.4%.
In the case of `O=CNc1ccccc1-c1noc(-c2ccccc2O)n1`, the EC100 was 15.708 µM in data set [1] and 8.116 µM in data set [2]. Moreover, the CC50 amounted to 31.4 µM in data set [1] and 40.6 µM in data set [2]. The inhibition was determined as 35.1% in [3] and 44.3% in data set [4].
As for `CC(=O)Oc1ccccc1-c1nc(-c2ccccc2N(C(C)=O)C(C)=O)no1`, the values for the EC100 in [1] and in data set [2] were 0.207 µM and 0.641 µM, respectively. Besides, in [1], the half-maximal cytotoxic concentration (CC50) worked out at 20.5 µM. Besides, the inhibition in [3] was determined as 17.1%; in data set [4] it was 44.4%.
With `Nc1ccccc1-c1noc(-c2ccccc2N)n1`, the EC100 was determined as 12.25 µM in data set [1] and 9.738 µM in data set [2]. The CC50 in [1] is 29 µM; in [2], 48.7 µM. Also, the inhibition in [3] came out at 16.2%; in data set [4] it was 26.1%.
Regarding `Nc1ccccc1-c1noc(-c2ccccc2)n1`, the EC100 in data set [1] was 5.886 µM; in [2], 7.299 µM. Moreover, in data set [1], the cytotoxic concentration (CC50) is 28.7 µM. For the same molecule, in data set [5], the CC50 at 72 h was 36.5 µM. The values for the inhibition in data set [3] and in data set [4] were 20.8% and 23.3%, respectively.
`Oc1ccccc1-c1noc(-c2ccccc2O)n1`: in data set [1], the EC100 was 3.36 µM and the cytotoxic concentration (CC50) was 19.5 µM. In addition, in data set [2], the half-maximal cytotoxic concentration (CC50) worked out at 26 µM and the EC100 stood at 5.208 µM. Moreover, in data set [3], the inhibition came out at 11.7%.
For `Nc1ccccc1-c1noc(-c2ccccc2O)n1`, the EC100 in data set [1] was found to be 4.114 µM; in [2], 6.474 µM. For the same molecule, the figures for the CC50 in data set [1] and in data set [2] were 22 µM and 32.4 µM, respectively. In addition, the inhibition in data set [3] worked out at 13.6%; in data set [4], 18.1%.
For `CCN(CC)CCCC(C)Nc1ccnc2cc(Cl)ccc12` (configuration not stated) [CHLOROQUINE], in [6], the IC50 turned out to be 1.13 µM.
For `Cc1ncc(COP(=O)([O-])O)c(/C=N/c2ccccc2-c2noc(-c3ccccc3)n2)c1O.[Na+]`, the EC100 in data set [1] was found to be 0.655 µM; in [2], 2.03 µM. The CC50 in data set [1] came to 6.46 µM; in data set [2], 10.1 µM. The inhibition in data set [3] turned out to be 22.5%; in data set [4] it was 36.7%.
Take `CCN(CCO)CCCC(C)Nc1ccnc2cc(Cl)ccc12` (configuration not stated) [HYDROXYCHLOROQUINE]: the IC50 in [6] is 0.72 µM.
`O=C(O)CN1C(=O)COc2ccccc2-c2nc(no2)-c2ccccc21`: the EC100 in data set [1] was 3.695 µM; in [2], 5.727 µM. Besides, the 50% cytotoxic concentration (CC50) amounted to 19.6 µM in [1] and 23.8 µM in data set [2]. The results for the inhibition in [3] and in data set [4] were 5.9% and 10.6%, respectively.
As for `[N-]=[N+]=Nc1ccccc1-c1noc(-c2ccccc2O)n1`, in data set [1], the EC100 was 6.707 µM and the cytotoxic concentration (CC50) was found to be 28.2 µM. Moreover, in data set [2], the CC50 is 38.5 µM and the EC100 was found to be 7.701 µM. Besides, the inhibition in data set [3] is 1.1%.
With `Nc1ccccc1-c1nc(-c2ccc(C(F)(F)F)cc2)no1`, in [1], the EC100 was 0.373 µM and the cytotoxic concentration (CC50) is 2.37 µM. In addition, in [2], the CC50 was 5.78 µM and the EC100 was 1.156 µM. Moreover, in [3], the inhibition came to 5%.
`Cc1ncc(COP(=O)([O-])O)c(/C=N/c2ccccc2-c2noc(-c3ccccc3O)n2)c1O.[Na+]`: the EC100 in data set [1] came out at 2.718 µM; in [2], 4.956 µM. For the same molecule, the results for the CC50 in data set [1] and in [2] were 1.03 µM and 3.21 µM, respectively. The inhibition in data set [3] is 13.9%; in data set [4], 26.1%.
One may read the logP as the decadic logarithm of the partition coefficient of the neutral form, usually between octanol and water. A lower logP goes with lower lipophilicity. Regarding `Nc1ccccc1-c1noc(-c2ccncc2)n1`, the results for the EC100 in data set [1] and in data set [2] were 8.352 µM and 10.356 µM, respectively. Further, the results for the CC50 in data set [1] and in data set [2] were 45.8 µM and 51.8 µM, respectively. The inhibition worked out at 58.6% in data set [3] and 65.6% in data set [4]. Moreover, the IC50 in data set [7] (read-out: IC50) is 7.2 µM; in [7] (read-out: pIC50 (converted)) it was 7.21 µM; in data set [9] (read-out: IC50), 8.67 µM; in data set [9] (read-out: pIC50 (converted)), 8.69 µM. This molecule showed a logP in data set [8] of 3.8.
